{
  "source": "patent US4746349A",
  "about": "“Method and compositions for suppressing the nitrification of ammonium in plant growth medium” (American Cyanamid Company, priority 1986, dated 1988)",
  "key": {"[1]": {"test_system": "Nitrosomonas spp.", "experiment": "Nitrification of ammonium in soil incubated at 25° C. (ammonium recovery, nitrate accumulation)", "conditions": "soil 25° C.; for Concentration of nitrate nitrogen / Recovery of Ammonium Nitrogen: 200 ppm N", "protocol": "In these evaluations, one hundred grams (100 g) of oven dry, silt loam field soil with low residual nitrogen is added to a 6×12 cm screw-capped glass jar for each sampling date to provide an optimum environment for nitrification.\nTwo replicates of each treatment-sampling date are established. The soil is adjusted to 50% water saturation with an aqueous solution of ammonium sulfate at 200 ppm N and the chemical to be tested as a nitrification inhibitor at rates of from 0.10 to 0.50 ppm.\nIncubation is at either 25° C. or 38° C. for 0, 1, 2, 4, 7, 9, 12, 16 or 20 weeks. Inorganic N is extracted by adding 2M KCl (10:1 v/w) and shaking for one hour, allowing settling for fifteen minutes. A 10 ml aliquot from the supernatant is assayed for ammonium, nitrite and nitrate by standard steam distillation methods (AOAC, pp. 653-655). Nitrapyrin (0.5 ppm) is used as a nitrification inhibitor for comparison. Benzyl alcohol, acetone, and a non-N amended soil are run as controls and as a check on mineralization.\nNitrification: Ammonium recovery and nitrate accumulation are indicative of nitrification, and data obtained with test compounds are reported in Tables I and II."}, "[2]": {"test_system": "Nitrobacter spp.", "experiment": "Nitrite nitrogen in ammonium amended soil incubated at 25° C.", "conditions": "soil 25° C., 200 ppm N", "protocol": "Determination of nitrite nitrogen and nitrate nitrogen in soil prepared in Example 1 above, which is amended with 200 ppm of nitrogen as aqueous ammonium sulfate, […], is determined using the nitrite and nitrate analysis of the American Organization of Analytical Chemists (AOAC pp. 653-655)."}},
  "note": "Where a name gives a salt, the structure may show the parent alone.",
  "data": [
    {"smiles": "CC[C@@H](C(=O)[C@@H](C)[C@@H](O)[C@H](C)[C@@H]1O[C@@H]([C@@H](CC)C(=O)O)CC[C@@H]1C)[C@H]1O[C@]2(C=C[C@@H](O)[C@]3(CC[C@@](C)([C@H]4CC[C@](O)(CC)[C@H](C)O4)O3)O2)[C@H](C)C[C@@H]1C", "note": "[Salinomycin monosodium salt, Salinomycin]", "values": [
      {"measurement": "Concentration of nitrate nitrogen", "setting": "[1]; 0.10 ppm, week 0", "result": 18, "unit": "PPM"},
      {"measurement": "Recovery of Ammonium Nitrogen", "setting": "[1]; 0.10 ppm, week 0", "result": 194, "unit": "PPM"},
      {"measurement": "Concentration of nitrate nitrogen", "setting": "[1]; 0.10 ppm, week 1", "result": 20, "unit": "PPM"},
      {"measurement": "Recovery of Ammonium Nitrogen", "setting": "[1]; 0.10 ppm, week 1", "result": 171, "unit": "PPM"},
      {"measurement": "Concentration of nitrate nitrogen", "setting": "[1]; 0.10 ppm, week 2", "result": 20, "unit": "PPM"},
      {"measurement": "Recovery of Ammonium Nitrogen", "setting": "[1]; 0.10 ppm, week 2", "result": 183, "unit": "PPM"},
      {"measurement": "Concentration of nitrate nitrogen", "setting": "[1]; 0.10 ppm, week 4", "result": 26, "unit": "PPM"},
      {"measurement": "Recovery of Ammonium Nitrogen", "setting": "[1]; 0.10 ppm, week 4", "result": 184, "unit": "PPM"},
      {"measurement": "Concentration of nitrate nitrogen", "setting": "[1]; 0.10 ppm, week 7", "result": 27, "unit": "PPM"},
      {"measurement": "Recovery of Ammonium Nitrogen", "setting": "[1]; 0.10 ppm, week 7", "result": 136, "unit": "PPM"},
      {"measurement": "Concentration of nitrate nitrogen", "setting": "[1]; 0.10 ppm, week 9", "result": 201, "unit": "PPM"},
      {"measurement": "Recovery of Ammonium Nitrogen", "setting": "[1]; 0.10 ppm, week 9", "result": 3, "unit": "PPM"},
      {"measurement": "Concentration of nitrate nitrogen", "setting": "[1]; 0.10 ppm, week 12", "result": 219, "unit": "PPM"},
      {"measurement": "Recovery of Ammonium Nitrogen", "setting": "[1]; 0.10 ppm, week 12", "result": 10, "unit": "PPM"},
      {"measurement": "Concentration of nitrate nitrogen", "setting": "[1]; 0.10 ppm, week 16", "result": 233, "unit": "PPM"},
      {"measurement": "Recovery of Ammonium Nitrogen", "setting": "[1]; 0.10 ppm, week 16", "result": 5, "unit": "PPM"},
      {"measurement": "Recovery of Ammonium Nitrogen", "setting": "[1]; 0.10 ppm, week 20", "result": 0, "unit": "PPM"},
      {"measurement": "Specific inhibition of nitrification through activity against Nitrosomonas spp., in words", "setting": "[1]; 0.1 to 0.5 ppm", "result": "appear to specifically inhibit nitrification through activity against Nitrosomonas spp."},
      {"measurement": "Concentration of nitrate nitrogen", "setting": "[1]; 0.25 ppm, week 0", "result": 19, "unit": "PPM"},
      {"measurement": "Recovery of Ammonium Nitrogen", "setting": "[1]; 0.25 ppm, week 0", "result": 193, "unit": "PPM"},
      {"measurement": "Concentration of nitrate nitrogen", "setting": "[1]; 0.25 ppm, week 1", "result": 23, "unit": "PPM"},
      {"measurement": "Recovery of Ammonium Nitrogen", "setting": "[1]; 0.25 ppm, week 1", "result": 176, "unit": "PPM"},
      {"measurement": "Concentration of nitrate nitrogen", "setting": "[1]; 0.25 ppm, week 2", "result": 22, "unit": "PPM"},
      {"measurement": "Recovery of Ammonium Nitrogen", "setting": "[1]; 0.25 ppm, week 2", "result": 189, "unit": "PPM"},
      {"measurement": "Concentration of nitrate nitrogen", "setting": "[1]; 0.25 ppm, week 4", "result": 23, "unit": "PPM"},
      {"measurement": "Recovery of Ammonium Nitrogen", "setting": "[1]; 0.25 ppm, week 4", "result": 185, "unit": "PPM"},
      {"measurement": "Concentration of nitrate nitrogen", "setting": "[1]; 0.25 ppm, week 7", "result": 45, "unit": "PPM"},
      {"measurement": "Recovery of Ammonium Nitrogen", "setting": "[1]; 0.25 ppm, week 7", "result": 167, "unit": "PPM"},
      {"measurement": "Concentration of nitrate nitrogen", "setting": "[1]; 0.25 ppm, week 9", "result": 44, "unit": "PPM"},
      {"measurement": "Recovery of Ammonium Nitrogen", "setting": "[1]; 0.25 ppm, week 9", "result": 171, "unit": "PPM"},
      {"measurement": "Concentration of nitrate nitrogen", "setting": "[1]; 0.25 ppm, week 12", "result": 57, "unit": "PPM"},
      {"measurement": "Recovery of Ammonium Nitrogen", "setting": "[1]; 0.25 ppm, week 12", "result": 168, "unit": "PPM"},
      {"measurement": "Concentration of nitrate nitrogen", "setting": "[1]; 0.25 ppm, week 16", "result": 121, "unit": "PPM"},
      {"measurement": "Recovery of Ammonium Nitrogen", "setting": "[1]; 0.25 ppm, week 16", "result": 111, "unit": "PPM"},
      {"measurement": "Concentration of nitrate nitrogen", "setting": "[1]; 0.25 ppm, week 20", "result": 187, "unit": "PPM"},
      {"measurement": "Recovery of Ammonium Nitrogen", "setting": "[1]; 0.25 ppm, week 20", "result": 4, "unit": "PPM"},
      {"measurement": "Concentration of nitrate nitrogen", "setting": "[1]; 0.50 ppm, week 0", "result": 19, "unit": "PPM"},
      {"measurement": "Recovery of Ammonium Nitrogen", "setting": "[1]; 0.50 ppm, week 0", "result": 194, "unit": "PPM"},
      {"measurement": "Concentration of nitrate nitrogen", "setting": "[1]; 0.50 ppm, week 1", "result": 22, "unit": "PPM"},
      {"measurement": "Recovery of Ammonium Nitrogen", "setting": "[1]; 0.50 ppm, week 1", "result": 167, "unit": "PPM"},
      {"measurement": "Concentration of nitrate nitrogen", "setting": "[1]; 0.50 ppm, week 2", "result": 21, "unit": "PPM"},
      {"measurement": "Recovery of Ammonium Nitrogen", "setting": "[1]; 0.50 ppm, week 2", "result": 185, "unit": "PPM"},
      {"measurement": "Concentration of nitrate nitrogen", "setting": "[1]; 0.50 ppm, week 4", "result": 18, "unit": "PPM"},
      {"measurement": "Recovery of Ammonium Nitrogen", "setting": "[1]; 0.50 ppm, week 4", "result": 170, "unit": "PPM"},
      {"measurement": "Concentration of nitrate nitrogen", "setting": "[1]; 0.50 ppm, week 7", "result": 18, "unit": "PPM"},
      {"measurement": "Recovery of Ammonium Nitrogen", "setting": "[1]; 0.50 ppm, week 7", "result": 197, "unit": "PPM"},
      {"measurement": "Concentration of nitrate nitrogen", "setting": "[1]; 0.50 ppm, week 9", "result": 26, "unit": "PPM"},
      {"measurement": "Recovery of Ammonium Nitrogen", "setting": "[1]; 0.50 ppm, week 9", "result": 196, "unit": "PPM"},
      {"measurement": "Concentration of nitrate nitrogen", "setting": "[1]; 0.50 ppm, week 12", "result": 39, "unit": "PPM"},
      {"measurement": "Recovery of Ammonium Nitrogen", "setting": "[1]; 0.50 ppm, week 12", "result": 191, "unit": "PPM"},
      {"measurement": "Concentration of nitrate nitrogen", "setting": "[1]; 0.50 ppm, week 16", "result": 28, "unit": "PPM"},
      {"measurement": "Recovery of Ammonium Nitrogen", "setting": "[1]; 0.50 ppm, week 16", "result": 205, "unit": "PPM"},
      {"measurement": "Concentration of nitrate nitrogen", "setting": "[1]; 0.50 ppm, week 20", "result": 45, "unit": "PPM"},
      {"measurement": "Recovery of Ammonium Nitrogen", "setting": "[1]; 0.50 ppm, week 20", "result": 176, "unit": "PPM"},
      {"measurement": "Effectiveness as nitrification inhibitor, in words", "setting": "[1]; 20 weeks study", "result": "second most effective inhibitor"},
      {"measurement": "Concentration of nitrite nitrogen", "setting": "[2]; 0.10 ppm, week 0", "result": 7, "unit": "ppm"},
      {"measurement": "Concentration of nitrite nitrogen", "setting": "[2]; 0.10 ppm, week 1", "result": 5, "unit": "ppm"},
      {"measurement": "Concentration of nitrite nitrogen", "setting": "[2]; 0.10 ppm, week 2", "result": 7, "unit": "ppm"},
      {"measurement": "Concentration of nitrite nitrogen", "setting": "[2]; 0.10 ppm, week 4", "result": 6, "unit": "ppm"},
      {"measurement": "Concentration of nitrite nitrogen", "setting": "[2]; 0.10 ppm, week 7", "result": -4, "unit": "ppm"},
      {"measurement": "Concentration of nitrite nitrogen", "setting": "[2]; 0.10 ppm, week 9", "result": 25, "unit": "ppm"},
      {"measurement": "Concentration of nitrite nitrogen", "setting": "[2]; 0.10 ppm, week 12", "result": 7, "unit": "ppm"},
      {"measurement": "Concentration of nitrite nitrogen", "setting": "[2]; 0.10 ppm, week 16", "result": 7, "unit": "ppm"},
      {"measurement": "Concentration of nitrite nitrogen", "setting": "[2]; 0.10 ppm, week 20", "result": 11, "unit": "ppm"},
      {"measurement": "Concentration of nitrite nitrogen", "setting": "[2]; 0.25 ppm, week 0", "result": 8, "unit": "ppm"},
      {"measurement": "Concentration of nitrite nitrogen", "setting": "[2]; 0.25 ppm, week 1", "result": 5, "unit": "ppm"},
      {"measurement": "Concentration of nitrite nitrogen", "setting": "[2]; 0.25 ppm, week 2", "result": 3, "unit": "ppm"},
      {"measurement": "Concentration of nitrite nitrogen", "setting": "[2]; 0.25 ppm, week 4", "result": 7, "unit": "ppm"},
      {"measurement": "Concentration of nitrite nitrogen", "setting": "[2]; 0.25 ppm, week 7", "result": -1, "unit": "ppm"},
      {"measurement": "Concentration of nitrite nitrogen", "setting": "[2]; 0.25 ppm, week 9", "result": 7, "unit": "ppm"},
      {"measurement": "Concentration of nitrite nitrogen", "setting": "[2]; 0.25 ppm, week 12", "result": 9, "unit": "ppm"},
      {"measurement": "Concentration of nitrite nitrogen", "setting": "[2]; 0.25 ppm, week 16", "result": 2, "unit": "ppm"},
      {"measurement": "Concentration of nitrite nitrogen", "setting": "[2]; 0.25 ppm, week 20", "result": 47, "unit": "ppm"},
      {"measurement": "Concentration of nitrite nitrogen", "setting": "[2]; 0.50 ppm, week 0", "result": 9, "unit": "ppm"},
      {"measurement": "Concentration of nitrite nitrogen", "setting": "[2]; 0.50 ppm, week 1", "result": 3, "unit": "ppm"},
      {"measurement": "Concentration of nitrite nitrogen", "setting": "[2]; 0.50 ppm, week 2", "result": 3, "unit": "ppm"},
      {"measurement": "Concentration of nitrite nitrogen", "setting": "[2]; 0.50 ppm, week 4", "result": 14, "unit": "ppm"},
      {"measurement": "Concentration of nitrite nitrogen", "setting": "[2]; 0.50 ppm, week 7", "result": 4, "unit": "ppm"},
      {"measurement": "Concentration of nitrite nitrogen", "setting": "[2]; 0.50 ppm, week 9", "result": -1, "unit": "ppm"},
      {"measurement": "Concentration of nitrite nitrogen", "setting": "[2]; 0.50 ppm, week 12", "result": 1, "unit": "ppm"},
      {"measurement": "Concentration of nitrite nitrogen", "setting": "[2]; 0.50 ppm, week 16", "result": 8, "unit": "ppm"},
      {"measurement": "Concentration of nitrite nitrogen", "setting": "[2]; 0.50 ppm, week 20", "result": 14, "unit": "ppm"}
    ]}
  ]
}
